Experiments:
[1] = tested on: Generic Yeast; test: Inoculation (challenge) study in creamy salad dressing, generic yeast; assay type: cell-based; conditions: creamy salad dressing emulsion; for Treatment Performance Generic Yeast LDIC (Log Difference in micro levels as compared to the Initial Count): negative values represent a degree of inhibition; for Treatment Performance Generic Yeast LDPC (Log Difference in micro levels as compared to the Positive Control without treatment): negative values represent degree of inhibition
Text: (§1) Turning now to the table, provided herein are formulations of a natural antimicrobial tested using a water continuous emulsion with a creamy texture and flavor, such as a creamy style salad dressing. It is noted that not only other types of water continuous emulsions, but also many other types of foods would also benefit from the antimicrobial nature of these formulations. As shown, the emulsion is standardized for a ratio of acid-to-moisture and salt-to-moisture values of a minimum of about 1.5 and about 4.8, respectively. When the emulsion was inoculated individually with cocktails of lactic acid bacteria, general yeast, or acid-tolerant yeast (such as Z. bailii) at approximately 4.0 logs, the emulsion spoils with microbial growth up to 7.0 logs. The overall pH of the present formulations can be anywhere from about 2.0 to about 6.0. Lower pH can often inhibit microbial growth, irrespective of other antimicrobial agents present. In the present formulations however, it was observed that the presence of antimicrobial agents such as cultured milks and/or organic acid salts were effective antimicrobial inhibitors, even at higher pH levels. High concentrations of undissociated organic acids can produce greater microbial inhibition. Increasing pH is associated with decreasing concentrations of undissociated acid. Thus, the microbial inhibition in a food that approaches a pH of 6.0 is unexpected.
(§2) The label LDPC indicates the Log Difference in micro levels as compared to the Positive Control without treatment (negative values represent degree of inhibition). The label LDIC indicates the Log Difference in micro levels as compared to the Initial Count or micro level of that treatment (negative values represent a degree of inhibition).
(§3) Two levels of Ca-Acetate alone and in combination with two levels of nisin and a nisin containing cultured ingredient were compared to determine their effect on typical spoilage (generic) yeast, the preservative resistant yeast, Z. bailii, and Lactobacillus.
(§4) Specifically, the samples were subjected to three different inocula (at log CFU 3-4) that contained microorganisms previously shown to spoil salad dressing. These included a cocktail of seven strains comprising various genera of yeast not known to be preservative resistant, a three strain cocktail of the preservative resistant Zygosaccharomyces bailii, and a three strain cocktail of Lactobacillus spp. (L. plantarum, L. fermentum, L. buchneri). The sample was then incubated at 22 degrees Celsius, and tested weekly for four weeks for the presence of these microorganisms.

[2] = tested on: Lactobacillus; test: Inoculation (challenge) study in creamy salad dressing, Lactobacillus / lactic acid bacteria; assay type: cell-based, Lactobacillus spp. (L. plantarum, L. fermentum, L. buchneri); conditions: for Treatment Performance Lactobacillus LDIC (Log Difference in micro levels as compared to the Initial Count) / Treatment Performance Lactobacillus LDPC (Log Difference in micro levels as compared to the Positive Control without treatment): creamy salad dressing emulsion; for Treatment Performance Lactobacillus LDIC (Log Difference in micro levels as compared to the Initial Count): negative values represent a degree of inhibition; for Treatment Performance Lactobacillus LDPC (Log Difference in micro levels as compared to the Positive Control without treatment): negative values represent degree of inhibition
Text: as §1, §2, §3, §4

[3] = tested on: Z. bailii; test: Inoculation (challenge) study in creamy salad dressing, acid-tolerant yeast Z. bailii; assay type: cell-based, Zygosaccharomyces bailii; conditions: for Treatment Performance Z. bailii LDIC (Log Difference in micro levels as compared to the Initial Count) / Treatment Performance Z. bailii LDPC (Log Difference in micro levels as compared to the Positive Control without treatment): creamy salad dressing emulsion; for Treatment Performance Z. bailii LDIC (Log Difference in micro levels as compared to the Initial Count): negative values represent a degree of inhibition; for Treatment Performance Z. bailii LDPC (Log Difference in micro levels as compared to the Positive Control without treatment): negative values represent degree of inhibition; for inhibition of Z. bailii (in words): Experiments 1-4
Text: as §1, §2, §3, §4

[4] = tested on: Generic Yeast; test: Inoculation (challenge) study in creamy salad dressing, generic yeast; assay type: cell-based; conditions: Experiments 1-4
[5] = tested on: Lactobacillus; test: Inoculation (challenge) study in creamy salad dressing, Lactobacillus / lactic acid bacteria; assay type: cell-based, Lactobacillus spp. (L. plantarum, L. fermentum, L. buchneri); conditions: Experiments 1-4
[6] = listed as three percent Ca-Acetate
[7] = listed as Three percent Na-Acetate

Molecule | Treatment Performance Generic Yeast LDIC (Log Difference in micro levels as compared to the Initial Count) [1] [Log] | Treatment Performance Generic Yeast LDPC (Log Difference in micro levels as compared to the Positive Control without treatment) [1] [Log] | Treatment Performance Lactobacillus LDIC (Log Difference in micro levels as compared to the Initial Count) [2] [Log] | Treatment Performance Lactobacillus LDPC (Log Difference in micro levels as compared to the Positive Control without treatment) [2] [Log] | Treatment Performance Z. bailii LDIC (Log Difference in micro levels as compared to the Initial Count) [3] [Log] | Treatment Performance Z. bailii LDPC (Log Difference in micro levels as compared to the Positive Control without treatment) [3] [Log] | also measured
Nisin [Nisin (mid)] | 3.5 | 1.5 | −1 | −2.5 | 2 | 0 | 
CC(=O)[O-].CC(=O)[O-].[Ca+2] [3% Ca acetate, calcium (Ca) acetate] | −1 | −3 | −2.5 | −2.5 | 1.5 | 0.5 | Treatment Performance Generic Yeast LDIC (Log Difference in micro levels as compared to the Initial Count) ([1]; listed as Ca acetate (high)): −2 Log; Treatment Performance Generic Yeast LDPC (Log Difference in micro levels as compared to the Positive Control without treatment) ([1]; listed as Ca acetate (high)): −4 Log; inhibition of lactic acid bacteria / Lactobacillus (in words) ([2]; Experiments 1-4): inhibited the growth; Treatment Performance Lactobacillus LDIC (Log Difference in micro levels as compared to the Initial Count) ([2]; listed as Ca acetate (high)): 0.5 Log; Treatment Performance Lactobacillus LDPC (Log Difference in micro levels as compared to the Positive Control without treatment) ([2]; listed as Ca acetate (high)): 1.5 Log; inhibition of Z. bailii (in words) ([3]; listed as 3 percent Ca-Acetate): needed to inhibit; inhibition of Z. bailii (in words) [3, 6]: but not Z. bailii; Treatment Performance Z. bailii LDIC (Log Difference in micro levels as compared to the Initial Count) ([3]; listed as Ca acetate (high)): 0.5 Log; Treatment Performance Z. bailii LDPC (Log Difference in micro levels as compared to the Positive Control without treatment) ([3]; listed as Ca acetate (high)): −1.5 Log; inhibition of general yeast (in words) [4, 6]: inhibited the growth
CC(=O)[O-].CC(=O)[O-].[Ca+2] [Ca acetate (mid), calcium (Ca) acetate] | −0.5 | −2.5 | −1.5 | −0.5 | 2 | 0.5 | inhibition of general yeast (in words) ([4]; listed as 1.5 percent Ca-Acetate): needed to inhibit
Nisin [Nisin (high)] | 3 | 1.5 | 0 | −2.5 | 2 | 0 | 
CC(=O)[O-].[Na+] [3% Na acetate, sodium (Na) acetate] | −3.5 | 0 | −3.5 | 0 | −0.5 | −2 | Treatment Performance Generic Yeast LDIC (Log Difference in micro levels as compared to the Initial Count) ([1]; listed as 3% Na Ac): 1 Log; Treatment Performance Generic Yeast LDPC (Log Difference in micro levels as compared to the Positive Control without treatment) ([1]; listed as 3% Na Ac): −0.5 Log; inhibition of Z. bailii (in words) ([3]; listed as 3 percent Na-Acetate): significant antimycotic inhibition; inhibition of Z. bailii (in words) [3, 7]: inhibited all of the tested spoilage organisms; Treatment Performance Z. bailii LDIC (Log Difference in micro levels as compared to the Initial Count) ([3]; listed as 3% Na Ac): −1 Log; Treatment Performance Z. bailii LDPC (Log Difference in micro levels as compared to the Positive Control without treatment) ([3]; listed as 3% Na Ac): −3 Log; inhibition of general yeast (in words) ([4]; listed as 3 percent Na-Acetate): did not inhibit; inhibition of general yeast (in words) [4, 7]: inhibited all of the tested spoilage organisms; inhibition of lactic acid bacteria / Lactobacillus (in words) ([5]; listed as 3 percent Na-Acetate): did not inhibit; inhibition of lactic acid bacteria / Lactobacillus (in words) [5, 7]: inhibited all of the tested spoilage organisms
